Assay results taken from patent US20220040123A1, “ANTI-HELICOBACTER FOOD COMPOSITION COMPRISING BETA-CARYOPHYLLENE” (priority 2018, published 2022).

Assays:
[1] = tested on: H. pylori; test: CLO score after the CLO test; type: in vivo, C57BL/6 mouse; details: for CLO score: 28 days, score 0-3, control G3 2.10
Method: (§1) In order to compare the Helicobacter pylori eradiation effect between beta-caryophyllene and the antibiotics that are used for treatment of Helicobacter pylori infection, an animal test was performed using the test groups and doses shown in Table 1 below.
(§2) Each test substance was suspended in an excipient according to the dose and administered to each mouse once a day at the same time every day for a total of 28 days in a dose of 5 ml per kg mouse (C57BL/6 mouse) by oral gavage method.
The mean and standard deviation of each group were calculated, and the difference between the values of the groups was compared, and the results are shown in Table 3 below.

[2] = tested on: H. pylori; test: Gastric rapid urease test (CLO test), therapeutic rate; type: in vivo, C57BL/6 mouse; details: oral gavage, 28 days, control G3 30%
Method: as §1, §2
The rapid urease test is based on the principle according to which, when H. pylori is present in gastric mucosa, the bacteria produce ammonia by secreting urease while proliferating in a medium containing a test reagent and a pH indicator, and a change in the color of the pH indicator is examined.
The gastric mucosal tissue extracted on the day of the autopsy was collected aseptically and tested using a Campylobacter-like organism (CLO) test reagent. The tissue was incubated in an incubator at 37° C. for 2 hours, the resulting color changed from yellow to red, the sample was judged as positive. The number of mice determined to be positive was calculated as a percentage, and the therapeutic rate for H. pylori eradication by sample treatment was obtained using the following equation, and the results are shown in Table 2 below.
Therapeutic rate (%)=(number of samples−number of positive samples)/number of samples×100

[3] = tested on: cagA, vacA and secA genes; test: RT-PCR of cagA, vacA and secA gene expression; type: cell-based, Helicobacter pylori; details: 31.25, 62.5, 125, 250 and 500 μg/ml
Method: In addition, in order to examine changes in expression of cagA, vacA and secA genes, H. pylori was treated with beta-caryophyllene at concentrations of 31.25, 62.5, 125, 250 and 500 μg/ml, and then RT-PCR was performed.

[4] = tested on: urease A and urease B; test: Expression of urease protein in H. pylori; type: cell-based, Helicobacter pylori; details: 125, 250 and 500 μg/ml, all treatment concentrations
Method: In order to evaluate the effect of beta-caryophyllene treatment on the inhibition of H. pylori urease, H. pylori was treated with beta-caryophyllene at concentrations of 125, 250 and 500 μg/ml, and changes in the expression of urease protein were analyzed, and the results are shown in FIG. 7.

[5] = tested on: dnaA, dnaN, holB and polA genes; test: Expression of DNA synthesis-related genes of H. pylori; type: cell-based, Helicobacter pylori; details: 31.25-500 μg/ml
Method: DNA replication is essential for the proliferation of Helicobacter pylori, and RNA synthesis (transcription process) is a process essential for protein synthesis in organisms. Thus, unless normal RNA synthesis occurs, normal life activity cannot be maintained. Accordingly, in order to evaluate the inhibitory effect of beta-caryophyllene against the proliferation of H. pylori, H. pylori was treated with beta-caryophyllene at concentrations of 31.25, 62.5, 125, 250 and 500 μg/ml, and changes in the expression of the DNA synthesis-related genes dnaA, dnaN, holB and polA were analyzed, and the results are shown in FIG. 10.

[6] = tested on: Helicobacter pylori-infected people; test: Human test, changes in digestive system symptoms; type: in vivo; details: 8 weeks
Method: In order to verify the anti-Helicobacter pylori effect of beta-caryophyllene, beta-caryophyllene was administered to 16 semi-healthy people (Helicobacter pylori-infected people) complaining of gastrointestinal disorders, at a dose of 126 mg/day once a day for 8 weeks before meals, and changes in digestive system symptoms (nausea, epigastric pain, heartburn, acid regurgitation, and indigestion) were evaluated, and the results are shown in Table 5.

[7] = tested on: virB2, virB4, virB5, virB6, virB7, virB8, virB9, virB10 and virD4 genes; test: RT-PCR of type IV secretion system (T4SS) genes; type: cell-based, Helicobacter pylori; details: 31.25-500 μg/ml
Method: In order to evaluate the inhibitory effect of beta-caryophyllene against the CagA toxin injection ability of Helicobacter pylori, expression of virB2, virB4, virB5, virB6, virB7, virB8, virB9, virB10 and virD4 genes associated with the type IV secretion system (T4SS) structure required to inject the CagA toxin into a host cell was analyzed, and the results are shown in FIG. 11. Specifically, Helicobacter pylori was treated with beta-caryophyllene at concentrations of 31.25, 62.5, 125, 250 and 500 μg/ml, and expression of the genes was analyzed by RT-PCR.

[8] = tested on: Helicobacter pylori; test: RT-PCR of H. pylori-specific 16S rRNA in stomach tissue of infected animals; type: in vivo, Mongolian gerbils; details: groups treated with 100 mg/kg and 500 mg/kg
Method: Mongolian gerbils were infected with a Helicobacter pylori strain (ATCC 49503) and then subjected to two weeks of acclimatization. To this end, the animals were fasted for 12 hours before and after inoculation with the Helicobacter pylori strain. 500 μl (1×10^9 CFU) of a bacterial suspension was prepared by suspending H. pylori in sterile physiological saline to a concentration of 2×10^9 CFU/ml and introduced directly into the stomach by using a feeding needle. For stable infection, the H. pylori strain was dispensed three times at 48 hour-intervals.
Beta-caryophyllene was administered directly into the gastrointestinal at doses of 100 mg/kg and 500 mg/kg for the low and high dose groups, respectively, for 12 weeks after two weeks after infection with H. pylori. The same amount of corn oil as the beta-caryophyllene was administered to each of the non-infected group and the infected group.
To confirm H. pylori infection, the stomach tissues of the four animal groups prepared in the H. pylori-infected animal preparation process shown in Experimental Example 2 were subjected to RT-PCR in order to examine whether H. pylori-specific 16S rRNA would be detected.

[9] = 126 mg/day, after vs before intake

## C=C1CC/C=C(\C)CC[C@@H]2[C@@H]1CC2(C)C [beta-caryophyllene]
[1]; G6: 100 mg/kg/day
  CLO score: 1.2
[1]; G6: 100 mg/kg/day, not statistically significant
  decrease of CLO score compared to G3: 42.9%
[1]; G7: 200 mg/kg/day
  CLO score: 1.11
[1]; G7: 200 mg/kg/day, not statistically significant
  decrease of CLO score compared to G3: 47.1%
[1]; G8: 500 mg/kg/day
  CLO score: 0.5
[1]; G8: 500 mg/kg/day, statistically significant
  decrease of CLO score compared to G3: 76.2%
[2]; G6: 100 mg/kg/day
  Therapeutic %: 60%
[2]; G7: 200 mg/kg/day
  Therapeutic %: 56%
[2]; G8: 500 mg/kg/day
  Therapeutic %: 80%
[3]
  transcription of other genes, including UDP-galactose 4-epimerase (control): did not affect
  transcription of toxin protein gene cagA: tended to be inhibited
  transcription of toxin protein gene vacA: tended to be inhibited
[4]
  expression of urease A (Urease α): significantly decreased
  expression of urease B (Urease β): significantly decreased
[5]
  expression of dnaA gene: increased
  expression of dnaN gene: significantly decreased
  expression of holB gene: significantly decreased
  expression of polA gene: increased
[6]; 126 mg/day once a day, 16 people, before intake 0.19
  Nausea, After intake: 0.06
[6]; 126 mg/day once a day, 16 people, before intake 0.25
  Acid regurgitation, After intake: 0.06
[6]; 126 mg/day once a day, 16 people, before intake 0.56
  Indigestion, After intake: 0.13
[6]; 126 mg/day once a day, 16 people, before intake 0.88
  Heartburn, After intake: 0.38
[6]; 126 mg/day once a day, 16 people, before intake 1.31
  Epigastric pain, After intake: 0.44
[6]; [9]
  Acid regurgitation, Improvement rate (%): 76%
  Epigastric pain, Improvement rate (%): 66.4%
  Heartburn, Improvement rate (%): 56.8%
  Indigestion, Improvement rate (%): 76.8%
  Nausea, Improvement rate (%): 68.4%
[6]; 126 mg/day, all five symptoms of Table 5
  improvement of Helicobacter pylori-induced gastrointestinal disorders: ≥ 56%
[7]
  expression of virB2 gene: significantly decreased
  expression of virB4 gene: significantly decreased
  expression of virB8 gene: significantly decreased
[8]; first value, week 6 (or 100 mg/kg; wording ambiguous)
  Helicobacter pylori eradication rate: 90.4%
[8]; second value, week 12 (or 500 mg/kg; wording ambiguous)
  Helicobacter pylori eradication rate: 95.8%
